Results reported in patent publication US20040127718A1, “Substituted imidazoles” (Novo Nordisk A/S, priority 2001, published 2004).

Tests used:
H3 receptor [1] = target: T1, H3 receptor (Homo sapiens, UniProt Q9Y5N1); test: Functional Assay: cAMP accumulation (Flash Plate) in HEK293 cells expressing the human H3 receptors; format: cell-based; conditions: cAMP accumulation stimulated with isoprenaline, h-H3-HEK 293 cells
T1 construct: expressed in transfected cells; pcDNA3)
Protocol: The ability of the compounds to interact with the histamine H3 receptor as agonists, inverse agonists and/or competitive antagonists, was determined by an in vitro functional assay utilizing membranes from HEK293 cell expressing the human H3 receptors.
The H3 receptor was cloned by PCR and subcloned into the pcDNA3 expression vector. Cells stably expressing the H3 receptor were generated by transfecting the H3-expression vectors into HEK 293 cells and using G418 to select for H3 clones. The h-H3-HEK 293 clones were cultured in DMEM with glutamax, 10% FCS, 1% Pen/Strep and 1 mg/ml G 418 at 37° C. and 5% CO2.
The H3 receptor expressing cells were washed once with phosphate buffered saline (PBS) and harvested using versene (GIBCO-BRL). PBS was added and the cells were centrifuged for 5 min at 188 g. The cell pellet was resuspended in stimulation buffer to a concentration of 1×10^6 cells/ml. cAMP accumulation was measured using the Flash Plate® cAMP assay (NEN™ Life Science Products). […] The plates were then sealed with plastic, shaken for 30 minutes, allowed to stand overnight, and finally the radioactivity was counted in the Cobra II auto gamma topcounter. EC50 values were calculated by non-linear regression analysis of dose response curves (6 points minimum) using GraphPad Prism. Kb values were calculated by Schild plot analysis.

H3 receptor [2] = target: T1, H3 receptor; test: Binding Assay III: [125I]-iodoproxifan binding to membranes of h-H3-HEK 293 clones; conditions: 30 pM [125I]-iodoproxifan, h-H3-HEK 293 membranes
Protocol: The H3 receptor was cloned by PCR and subcloned into the pcDNA3 expression vector. Cells stably expressing the H3 receptor were generated by transfecting the H3-expression vectors into HEK 293 cells and using G418 to select for H3 clones. The h-H3-HEK 293 clones were cultured in DMEM with glutamax, 10% FCS, 1% Pen/Strep and 1 mg/ml G 418 at 37° C. and 5% CO2. Before harvesting, the confluent cells were rinsed with PBS and incubated with Versene for approximately 5 minutes. The cells were flushed with PBS and DMEM and the cellsuspension collected in a tube and centrifuged for 5-10 min at 1500 rpm in a Heraeus Sepatech Megafuge 1.0. The pellet was resuspended in 10-20 vol. Hepes buffer (20 mM Hepes, 5 mM MgCl2, pH 7.1 (KOH)) and homogenized for 10-20 seconds using a Ultra-Turrax homogenizer. The homogenate was centrifuged for 30 min at 23 000 g. The pellet was resuspended in 5-10 ml Hepes buffer, homogenized 5-10 seconds with the Ultra-Turrax and centrifuged for 10 min at 23 000 g. Following this centrifugation step, the membrane pellet was resuspended in 2-4 ml Hepes buffer, homogenized with a syringe or teflonhomogenizer, and the protein concentration determined. The membranes were diluted to a protein concentration of 1-5 mg/ml in Hepes buffer, aliquoted and kept at −80° C. until use. […]

T1 sequence (Q9Y5N1 whole entry): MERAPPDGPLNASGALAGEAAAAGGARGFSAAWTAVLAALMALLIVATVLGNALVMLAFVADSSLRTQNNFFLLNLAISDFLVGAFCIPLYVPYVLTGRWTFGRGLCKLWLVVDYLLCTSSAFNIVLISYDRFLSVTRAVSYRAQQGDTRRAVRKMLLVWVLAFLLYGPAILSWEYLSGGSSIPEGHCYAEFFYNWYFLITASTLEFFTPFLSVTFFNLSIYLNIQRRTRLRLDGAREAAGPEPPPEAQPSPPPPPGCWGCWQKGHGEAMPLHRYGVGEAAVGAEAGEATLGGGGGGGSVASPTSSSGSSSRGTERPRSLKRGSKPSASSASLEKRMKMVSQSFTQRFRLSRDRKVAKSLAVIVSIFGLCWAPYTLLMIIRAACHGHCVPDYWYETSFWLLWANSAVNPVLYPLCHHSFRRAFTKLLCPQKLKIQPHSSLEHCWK

EC50 (H3 receptor [1])	IC50 (H3 receptor [2])	Compound
< 100 nM	< 100 nM	Cc1[nH]cnc1CCCCOc1ccc2ccccc2c1 [Example 15/5, 5-Methyl-4-[4-(naphthalen-2-yloxy)-butyl]-1H-imidazole]
< 50 nM	< 50 nM	Cc1[nH]cnc1CCCOCc1cccc(I)c1 [Example 16/14, 4-[3-(3-Iodo-benzyloxy)-propyl]-5-methyl-1H-imidazole]
